One molecule from publication PMC5033673 (Cancer research, 2016) can be followed below.

This experiment has as its target MutSα (MSH2/MSH6 heterodimer) (Homo sapiens, UniProt P43246+P52701). Put plainly: Biacore SPR. The class given is binding.

Each structure is given as a SMILES string.

Sequence of MutSα (MSH2/MSH6 heterodimer) (P43246 2-934): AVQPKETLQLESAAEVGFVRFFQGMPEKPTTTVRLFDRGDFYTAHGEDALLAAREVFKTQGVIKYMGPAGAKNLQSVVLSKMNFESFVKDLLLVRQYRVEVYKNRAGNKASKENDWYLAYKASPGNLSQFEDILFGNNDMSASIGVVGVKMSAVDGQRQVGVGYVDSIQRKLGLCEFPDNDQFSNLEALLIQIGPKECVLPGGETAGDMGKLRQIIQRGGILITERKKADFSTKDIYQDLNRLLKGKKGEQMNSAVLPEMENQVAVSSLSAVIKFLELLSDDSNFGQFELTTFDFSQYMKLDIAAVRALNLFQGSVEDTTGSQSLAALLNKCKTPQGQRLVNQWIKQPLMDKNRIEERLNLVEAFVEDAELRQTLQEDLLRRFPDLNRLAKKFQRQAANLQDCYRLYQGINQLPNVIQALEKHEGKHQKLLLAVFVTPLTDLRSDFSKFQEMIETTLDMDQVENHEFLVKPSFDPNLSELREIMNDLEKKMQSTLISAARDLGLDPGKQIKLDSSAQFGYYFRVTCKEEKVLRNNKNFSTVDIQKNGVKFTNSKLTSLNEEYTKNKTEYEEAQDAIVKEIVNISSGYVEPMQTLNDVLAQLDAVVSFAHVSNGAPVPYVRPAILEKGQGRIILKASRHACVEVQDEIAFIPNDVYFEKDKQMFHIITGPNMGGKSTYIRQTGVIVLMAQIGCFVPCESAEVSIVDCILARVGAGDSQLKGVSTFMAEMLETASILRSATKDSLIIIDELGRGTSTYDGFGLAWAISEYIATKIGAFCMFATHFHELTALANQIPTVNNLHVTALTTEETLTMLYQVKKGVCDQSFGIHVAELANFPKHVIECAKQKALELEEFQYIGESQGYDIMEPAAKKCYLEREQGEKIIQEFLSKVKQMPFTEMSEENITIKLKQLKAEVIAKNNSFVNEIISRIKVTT
Sequence of MutSα (MSH2/MSH6 heterodimer) (P52701 whole entry): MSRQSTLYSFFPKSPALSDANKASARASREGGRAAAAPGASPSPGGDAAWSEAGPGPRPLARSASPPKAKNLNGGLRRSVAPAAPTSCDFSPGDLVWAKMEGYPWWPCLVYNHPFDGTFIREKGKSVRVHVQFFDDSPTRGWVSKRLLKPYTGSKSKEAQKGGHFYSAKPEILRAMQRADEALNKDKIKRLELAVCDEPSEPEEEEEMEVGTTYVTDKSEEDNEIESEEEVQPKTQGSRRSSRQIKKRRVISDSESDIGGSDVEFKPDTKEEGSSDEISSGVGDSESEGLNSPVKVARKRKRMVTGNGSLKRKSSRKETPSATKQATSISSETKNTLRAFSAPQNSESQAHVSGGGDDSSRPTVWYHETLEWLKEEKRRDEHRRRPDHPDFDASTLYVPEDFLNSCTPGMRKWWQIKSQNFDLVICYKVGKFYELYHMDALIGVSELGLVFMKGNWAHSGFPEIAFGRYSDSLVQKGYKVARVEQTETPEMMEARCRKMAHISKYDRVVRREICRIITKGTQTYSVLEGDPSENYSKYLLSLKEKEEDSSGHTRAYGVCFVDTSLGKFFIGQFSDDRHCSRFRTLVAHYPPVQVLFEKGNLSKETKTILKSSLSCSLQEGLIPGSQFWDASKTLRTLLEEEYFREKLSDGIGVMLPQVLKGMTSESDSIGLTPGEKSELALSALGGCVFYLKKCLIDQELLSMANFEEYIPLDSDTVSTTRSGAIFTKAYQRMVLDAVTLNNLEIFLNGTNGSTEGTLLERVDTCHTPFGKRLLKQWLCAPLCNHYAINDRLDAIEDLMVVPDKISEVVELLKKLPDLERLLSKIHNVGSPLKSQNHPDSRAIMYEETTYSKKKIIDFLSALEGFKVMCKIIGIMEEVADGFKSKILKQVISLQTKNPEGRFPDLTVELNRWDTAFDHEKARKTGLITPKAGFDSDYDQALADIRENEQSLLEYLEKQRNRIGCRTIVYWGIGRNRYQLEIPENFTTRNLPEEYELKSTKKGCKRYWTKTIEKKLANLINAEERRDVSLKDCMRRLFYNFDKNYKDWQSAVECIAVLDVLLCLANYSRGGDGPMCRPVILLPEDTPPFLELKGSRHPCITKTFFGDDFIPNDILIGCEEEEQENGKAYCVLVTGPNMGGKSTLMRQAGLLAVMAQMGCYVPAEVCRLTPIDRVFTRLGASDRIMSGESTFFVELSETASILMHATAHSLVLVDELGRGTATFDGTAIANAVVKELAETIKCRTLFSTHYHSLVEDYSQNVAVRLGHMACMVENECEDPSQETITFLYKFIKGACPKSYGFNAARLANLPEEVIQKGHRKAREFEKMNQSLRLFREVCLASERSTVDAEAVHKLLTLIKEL

In the case of `O=c1cc(-c2ccccc2)oc2cc(O)c(O)c(O)c12` [baicalein, 5,6,7-trihydroxyflavone], the Kd is ~32.2 µM.
